Laboratory results: US8912128B2 (priority 2012, dated 2014)
Values joined by “and” are separate entries in the source; they are usually repeats but may differ in a detail not shown here. Equal entries are not always repeated.

How the values were obtained:
[1] = molecular target: cholera toxin secreted from Vibrio cholerae culture (Vibrio cholerae serotype O1, UniProt P01556)
[2] = molecular target: whole cholera toxin (ctxAB5) (Vibrio cholerae serotype O1, UniProt P01556); format: binding
Sequence of whole cholera toxin (ctxAB5) (P01556 whole entry, looked up): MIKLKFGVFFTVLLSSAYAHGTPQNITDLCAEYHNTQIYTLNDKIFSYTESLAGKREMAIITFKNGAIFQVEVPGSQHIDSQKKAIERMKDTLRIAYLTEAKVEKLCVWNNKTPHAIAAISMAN

Sequence of cholera toxin secreted from Vibrio cholerae culture (P01556 whole entry, looked up): as above

| Substance | fluorescence signal with Vibrio cholerae culture [1] | coefficient of determination of linear relation between fluorescence intensity and whole cholera toxin concentration [2] | limit of detection (LOD) of cholera toxin determined from the dose-response curve [2] | visual limit of detection (LOD) of cholera toxin [2] | whole cholera toxin concentration at which fluorescence intensity was saturated [2] |
| --- | --- | --- | --- | --- | --- |
| GM1 pentasaccharide | high fluorescence intensity | 0.9935 | 2 ng/mL and 23 pM | 5 ng/mL and 57.5 pM | ≥ 1 µg/mL |
| GM2 tetrasaccharide | high fluorescence intensity | – | – | 750 ng/mL | – |
| asialo GM1 tetrasaccharide | – | – | – | 1000 ng/mL | – |
